16 compounds from patent US20240383886A1, “Protein Tyrosine Phosphatase Degraders and Methods of Use Thereof” (CALICO LIFE SCIENCES LLC, priority 2019, published 2024) can be followed below.

Molecules are shown by their SMILES. Bounds are passed on as bounds.

Assay [1] deals with T1, PTPN2 (Homo sapiens, UniProt P17706).
T1 construct: expressed in transfected cells; host or cells: 293T (293T.109 HiBiT-PTPN2 line; parental 293T WT from ATCC)
T1 sequence (P17706 1-415): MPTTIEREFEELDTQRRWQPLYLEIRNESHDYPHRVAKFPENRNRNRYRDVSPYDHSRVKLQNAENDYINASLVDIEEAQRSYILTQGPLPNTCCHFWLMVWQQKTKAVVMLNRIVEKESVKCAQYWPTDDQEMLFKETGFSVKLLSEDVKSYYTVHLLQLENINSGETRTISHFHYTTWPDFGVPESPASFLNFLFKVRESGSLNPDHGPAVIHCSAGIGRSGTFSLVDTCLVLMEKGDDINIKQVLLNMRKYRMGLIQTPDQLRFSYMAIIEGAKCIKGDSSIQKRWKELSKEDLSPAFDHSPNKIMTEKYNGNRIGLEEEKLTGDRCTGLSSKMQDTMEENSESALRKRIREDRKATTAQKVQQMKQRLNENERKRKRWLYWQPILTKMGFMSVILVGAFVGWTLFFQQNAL
In words: HiBiT-Degradation 293T.109 PTPN2 (Nano-Glo HiBiT Lytic Assay). The assay is classed as cell-based. As to conditions: 293T.109 (HiBiT-PTPN2) cells, 24.0 hours. In a few lines: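 293T cells ectopically expressing N-terminally HiBiT-tagged PTPN2 were seeded at 5000 cells/well. They were treated with an 11-point half-log titration from 10 μM, in duplicate, for 24 hours at 37° C., 5% CO2. Remaining tagged PTPN2 was quantified by lytic HiBiT luminescence against untreated and no-reagent controls.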
Background: The HiBiT peptide binds its large partner to form an active luciferase.

In assay [2] the test system is PTPN2. In words: HiBiT-Degradation B16F10.4 PTPN2. As to conditions: B16F10.4 cells, 24.0 hours. The assay is classed as cell-based.

Regarding `O=C(CN1CCC(c2ccc3c4c(cccc24)C(=O)N3C2CCC(=O)NC2=O)CC1)NCCOc1ccc2cc(O)c(N3CC(=O)NS3(=O)=O)c(F)c2c1` (centres unmarked) [Example 7, N-(2-((7-(1,1-dioxido-4-oxo-1,2,5-thiadiazolidin-2-yl)-8-fluoro-6-hydroxynaphthalen-2-yl)oxy)ethyl)-2-(4-(1-(2,6-dioxopiperidin-3-yl)-2-oxo-1,2-dihydrobenzo[cd]indol-6-yl)piperidin-1-yl)acetamide], the DC50 on PTPN2 [1] and in the assay with PTPN2 [2] was 10 to 50 nM in each case.

Take `Cn1c(=O)n(C2CCC(=O)NC2=O)c2ccc(N3CCC(C4CCN(C(=O)COc5ccc6cc(O)c(N7CC(=O)NS7(=O)=O)c(F)c6c5)CC4)CC3)cc21` (centres unmarked) [Example 109, 3-[5-[4-[1-[2-[[8-fluoro-6-hydroxy-7-(1,1,4-trioxo-1,2,5-thiadiazolidin-2-yl)-2-naphthyl]oxy]acetyl]-4-piperidyl]-1-piperidyl]-3-methyl-2-oxo-benzimidazol-1-yl]piperidine-2,6-dione]: the results for the half-maximal degradation concentration (DC50) on PTPN2 [1] and in the assay with PTPN2 [2] were 200 to 1000 nM and 50 to 200 nM, respectively.

Turning to `O=C1CCC(N2Cc3c(NCc4cn(C5CN(C(=O)Nc6ccc7c(F)c(N8CC(=O)NS8(=O)=O)c(O)cc7c6)C5)nn4)cccc3C2=O)C(=O)N1` (centres unmarked) [Example 57], the DC50 at PTPN2 [1] is 200 to 1000 nM; in the assay on PTPN2 [2], no less than 1000 nM.

`Cn1c(=O)n(C2CCC(=O)NC2=O)c2ccc(CCC(=O)NCCOc3ccc4cc(O)c(N5CC(=O)NS5(=O)=O)c(F)c4c3)cc21` (centres unmarked) [Example 34]: the DC50 on PTPN2 [1] and with PTPN2 [2] was no less than 1000 nM each time.

Regarding `Cn1c(=O)n(C2CCC(=O)NC2=O)c2ccc([C@H]3CC[C@H](CNC(=O)c4ccc5c(F)c(N6CC(=O)NS6(=O)=O)c(O)cc5c4)CC3)cc21` (single isomer, unassigned) [Example 76], the DC50 at PTPN2 [1] was 10 to 50 nM; in the assay with PTPN2 [2], 50 to 200 nM.

On to `CC(C)n1c(=O)n(C2CCC(=O)NC2=O)c2ccc(C3CCN(CC(=O)Nc4ccc5c(F)c(N6CC(=O)NS6(=O)=O)c(O)cc5c4)CC3)cc21` (centres unmarked) [Example 24, 2-[4-[1-(2,6-dioxo-3-piperidyl)-3-isopropyl-2-oxo-benzimidazol-5-yl]-1-piperidyl]-N-[5-fluoro-7-hydroxy-6-(1,1,4-trioxo-1,2,5-thiadiazolidin-2-yl)-2-naphthyl]acetamide], for which the 50% degradation concentration (DC50) at PTPN2 [1] and in the assay with PTPN2 [2] was 50 to 200 nM each time.

As to `Cn1c(=O)n(C2CCC(=O)NC2=O)c2ccc(C3CCN(CC(=O)N4CC[C@H](COc5ccc6cc(O)c(N7CC(=O)NS7(=O)=O)c(F)c6c5)C4)CC3)cc21` (stereo partly drawn) [Example 133, 3-[5-[1-[2-[(3S)-3-[[8-fluoro-6-hydroxy-7-(1,1,4-trioxo-1,2,5-thiadiazolidin-2-yl)-2-naphthyl]oxymethyl]pyrrolidin-1-yl]-2-oxo-ethyl]-4-piperidyl]-3-methyl-2-oxo-benzimidazol-1-yl]piperidine-2,6-dione], the DC50 was 10 to 50 nM at PTPN2 [1] and 50 to 200 nM in the assay with PTPN2 [2].

Regarding `Cn1c(=O)n(C2CCC(=O)NC2=O)c2ccc(-c3ccc(CC(=O)Nc4ccc5c(F)c(N6CC(=O)NS6(=O)=O)c(O)cc5c4)nc3)cc21` (centres unmarked) [Example 175, N-(6-(1,1-dioxido-4-oxo-1,2,5-thiadiazolidin-2-yl)-5-fluoro-7-hydroxynaphthalen-2-yl)-2-(5-(1-(2,6-dioxopiperidin-3-yl)-3-methyl-2-oxo-2,3-dihydro-1H-benzo[d]imidazol-5-yl)pyridin-2-yl)acetamide], the DC50 was in the range of 10 to 50 nM at PTPN2 [1] and 50 to 200 nM with PTPN2 [2].

In the case of `O=C(CCOCCNC(=O)CNc1cccc2c1CN(C1CCC(=O)NC1=O)C2=O)NCCOc1ccc2cc(O)c(N3CC(=O)NS3(=O)=O)c(F)c2c1` (centres unmarked) [Example 45], the DC50 at PTPN2 [1] is 200 to 1000 nM; in the assay on PTPN2 [2], no less than 1000 nM.

As for `Cn1c(=O)n(C2CCC(=O)NC2=O)c2ccc(C3CCN(CC(=O)N4CC(Oc5ccc6cc(O)c(N7CC(=O)NS7(=O)=O)c(F)c6c5)C4)CC3)cc21` (centres unmarked) [Example 112, 3-[5-[1-[2-[3-[[8-fluoro-6-hydroxy-7-(1,1,4-trioxo-1,2,5-thiadiazolidin-2-yl)-2-naphthyl]oxy]azetidin-1-yl]-2-oxo-ethyl]-4-piperidyl]-3-methyl-2-oxo-benzimidazol-1-yl]piperidine-2,6-dione], the 50% degradation concentration (DC50) fell in the range of 10 to 50 nM at PTPN2 [1] and 50 to 200 nM in the assay on PTPN2 [2].

As to `O=C1CCC(N2Cc3cc(OCc4cn(CCC(=O)Nc5ccc6c(F)c(N7CC(=O)NS7(=O)=O)c(O)cc6c5)nn4)ccc3C2=O)C(=O)N1` (centres unmarked) [Example 20, 3-[4-[[2-(2,6-dioxo-3-piperidyl)-1-oxo-isoindolin-5-yl]oxymethyl]triazol-1-yl]-N-[5-fluoro-7-hydroxy-6-(1,1,4-trioxo-1,2,5-thiadiazolidin-2-yl)-2-naphthyl]propanamide], the DC50 on PTPN2 [1] and in the assay with PTPN2 [2] was 50 to 200 nM throughout.

With `Cn1c(=O)n(C2CCC(=O)NC2=O)c2ccc([C@H]3CC[C@@H](CC(=O)Nc4ccc5c(F)c(N6CC(=O)NS6(=O)=O)c(O)cc5c4)CC3)cc21` (single isomer, unassigned) [Example 81a, N-(6-(1,1-dioxido-4-oxo-1,2,5-thiadiazolidin-2-yl)-5-fluoro-7-hydroxynaphthalen-2-yl)-2-((1s,4s)-4-(1-(2,6-dioxopiperidin-3-yl)-3-methyl-2-oxo-2,3-dihydro-1H-benzo[d]imidazol-5-yl)cyclohexyl)acetamide], the half-maximal degradation concentration (DC50) at PTPN2 [1] and with PTPN2 [2] was 10 to 50 nM each time.

Consider `Cn1c(=O)n(C2CCC(=O)NC2=O)c2ccc(N3CCC(CNC(=O)c4ccc5c(F)c(N6CC(=O)NS6(=O)=O)c(O)cc5c4)CC3)cc21` (centres unmarked) [Example 99, N-[[1-[1-(2,6-dioxo-3-piperidyl)-3-methyl-2-oxo-benzimidazol-5-yl]-4-piperidyl]methyl]-5-fluoro-7-hydroxy-6-(1,1,4-trioxo-1,2,5-thiadiazolidin-2-yl)naphthalene-2-carboxamide], for which the 50% degradation concentration (DC50) at PTPN2 [1] and with PTPN2 [2] was 50 to 200 nM in each case.

As for `Cn1c(=O)n(C2CCC(=O)NC2=O)c2ccc(C3CCN(CC(=O)N4CC=C(c5ccc6cc(O)c(N7CC(=O)NS7(=O)=O)c(F)c6c5)C4)CC3)cc21` (centres unmarked) [Example 88, 3-[5-[1-[2-[3-[8-fluoro-6-hydroxy-7-(1,1,4-trioxo-1,2,5-thiadiazolidin-2-yl)-2-naphthyl]-2,5-dihydropyrrol-1-yl]-2-oxo-ethyl]-4-piperidyl]-3-methyl-2-oxo-benzimidazol-1-yl]piperidine-2,6-dione], the DC50 at PTPN2 [1] and with PTPN2 [2] was 50 to 200 nM each time.

`Cn1c(=O)n(C2CCC(=O)NC2=O)c2ccc(C3CCN(CC(=O)N4CCN(c5ccc6cc(O)c(N7CC(=O)NS7(=O)=O)c(F)c6c5)CC4)CC3)cc21` (centres unmarked) [Example 156, 3-[5-[1-[2-[4-[8-fluoro-6-hydroxy-7-(1,1,4-trioxo-1,2,5-thiadiazolidin-2-yl)-2-naphthyl]piperazin-1-yl]-2-oxo-ethyl]-4-piperidyl]-3-methyl-2-oxo-benzimidazol-1-yl]piperidine-2,6-dione]: the DC50 at PTPN2 [1] was 10 to 50 nM; with PTPN2 [2] it was 200 to 1000 nM.

On to `O=C1CCC(N2C(=O)c3cccc(NCc4cn(C5CCN(CC(=O)Nc6ccc7c(F)c(N8CC(=O)NS8(=O)=O)c(O)cc7c6)CC5)nn4)c3C2=O)C(=O)N1` (centres unmarked) [Example 67], for which the half-maximal degradation concentration (DC50) on PTPN2 [1] is 200 to 1000 nM; in the assay on PTPN2 [2], no less than 1000 nM.

The term DC50 denotes the concentration at which degradation of the target reaches its halfway point. High values mean degradation only at high concentration, low ones degradation at low concentration.
